Reference: US20040028746A1, “Crystalline drug particles prepared using a controlled precipitation (recrystallization) process” (priority 2002, published 2004)

How the values were obtained:
[1] = Dissolution by turbidity method (loss in turbidity); assay type: physicochemical; conditions: loss in turbidity monitored for 5 minutes
Method: (§1) Dissolution was monitored for 5 minutes by the loss in turbidity.
as §1

[2] = Average crystalline domain size and crystallinity by X-ray diffraction; assay type: physicochemical; conditions: comparative particles as received or wet-milled (Table B)
Method: As used herein the term “essentially crystalline” is defined to mean that the particles are at least 90% crystalline as measured using X-ray diffraction techniques.
0.3 g of the drug was dissolved in 6 ml of the organic solvent, which may contain 0.3 g of a stabilizer. The organic solution was injected at 2 degrees C. with vigorous stirring into 30.0 g of the aqueous phase, which may contain a second stabilizer. The solvent was stripped from the resulting slurry, and the slurry freeze dried to yield a powder. […] Average size of the crystalline domains was determined using X-ray diffraction as known by those skilled in the art of particle size measurement, using Jade XRD pattern processing software (v.6).
as §1

Row | Compound | Percent of Dissolution after 5 min. ([1]; Danazol samples: deionized water plus sodium dodecyl sulfate) | Crystalline Domain [2] | Percent of Dissolution after 5 min. ([1]; Carbamazepine sample: deionized water)
1 | C#C[C@]1(O)CC[C@H]2[C@@H]3CCC4=Cc5oncc5C[C@]4(C)[C@H]3CC[C@@]21C [compound 24, Danazol/USP 24] | 91% | 404 Å | 
2 | NC(=O)N1c2ccccc2C=Cc2ccccc21 [compound 23, Carbamazepine] |  | 475 Å | 100%
3 | COc1ccc2cc([C@H](C)C(=O)O)ccc2c1 [compound 22, Naproxen] |  | 646 Å | 
